The values below come from patent US20220402980A1, “CHROMOGRANIN A-DERIVED PEPTIDES AND USES THEREOF” (OSPEDALE SAN RAFFAELE S.R.L., priority 2019, published 2022).

What is called Ki is a dissociation constant, usually derived from enzyme kinetics or from competition with a known ligand.

Read-outs that look alike come from different tables or passages of the source.

The target of assay [1] is T1, αvβ6 (Homo sapiens, UniProt P06756+P18564).
T1 construct: recombinant human αvβ6 extracellular domain (R&D Systems); purchased R&D Systems (Minneapolis, Minn.)
T1 sequence (P06756 31-992 limits assumed): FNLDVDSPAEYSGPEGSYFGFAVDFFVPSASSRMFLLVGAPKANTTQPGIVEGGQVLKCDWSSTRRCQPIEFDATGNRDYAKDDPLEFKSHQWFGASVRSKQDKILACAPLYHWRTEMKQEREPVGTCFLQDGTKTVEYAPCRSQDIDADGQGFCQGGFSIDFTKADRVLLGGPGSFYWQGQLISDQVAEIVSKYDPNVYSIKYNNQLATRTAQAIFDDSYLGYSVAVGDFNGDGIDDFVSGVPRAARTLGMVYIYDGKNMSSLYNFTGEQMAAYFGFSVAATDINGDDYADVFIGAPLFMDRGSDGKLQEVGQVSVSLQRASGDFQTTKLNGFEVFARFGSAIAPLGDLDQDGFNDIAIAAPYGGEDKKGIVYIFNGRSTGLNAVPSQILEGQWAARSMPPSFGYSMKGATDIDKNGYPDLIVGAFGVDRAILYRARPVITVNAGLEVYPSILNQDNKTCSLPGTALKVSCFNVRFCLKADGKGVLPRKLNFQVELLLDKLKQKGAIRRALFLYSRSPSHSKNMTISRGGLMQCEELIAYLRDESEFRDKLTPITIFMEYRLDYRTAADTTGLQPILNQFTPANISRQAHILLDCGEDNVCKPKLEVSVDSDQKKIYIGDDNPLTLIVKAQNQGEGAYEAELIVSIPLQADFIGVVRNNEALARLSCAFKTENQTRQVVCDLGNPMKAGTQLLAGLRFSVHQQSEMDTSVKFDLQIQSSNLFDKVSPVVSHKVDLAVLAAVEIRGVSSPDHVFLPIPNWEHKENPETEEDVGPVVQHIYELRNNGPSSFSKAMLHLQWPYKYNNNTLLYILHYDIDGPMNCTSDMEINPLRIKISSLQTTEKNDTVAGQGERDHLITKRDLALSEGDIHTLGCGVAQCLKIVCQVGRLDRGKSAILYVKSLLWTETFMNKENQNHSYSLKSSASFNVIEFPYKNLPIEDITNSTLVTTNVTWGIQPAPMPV
T1 sequence (P18564 22-709 limits assumed): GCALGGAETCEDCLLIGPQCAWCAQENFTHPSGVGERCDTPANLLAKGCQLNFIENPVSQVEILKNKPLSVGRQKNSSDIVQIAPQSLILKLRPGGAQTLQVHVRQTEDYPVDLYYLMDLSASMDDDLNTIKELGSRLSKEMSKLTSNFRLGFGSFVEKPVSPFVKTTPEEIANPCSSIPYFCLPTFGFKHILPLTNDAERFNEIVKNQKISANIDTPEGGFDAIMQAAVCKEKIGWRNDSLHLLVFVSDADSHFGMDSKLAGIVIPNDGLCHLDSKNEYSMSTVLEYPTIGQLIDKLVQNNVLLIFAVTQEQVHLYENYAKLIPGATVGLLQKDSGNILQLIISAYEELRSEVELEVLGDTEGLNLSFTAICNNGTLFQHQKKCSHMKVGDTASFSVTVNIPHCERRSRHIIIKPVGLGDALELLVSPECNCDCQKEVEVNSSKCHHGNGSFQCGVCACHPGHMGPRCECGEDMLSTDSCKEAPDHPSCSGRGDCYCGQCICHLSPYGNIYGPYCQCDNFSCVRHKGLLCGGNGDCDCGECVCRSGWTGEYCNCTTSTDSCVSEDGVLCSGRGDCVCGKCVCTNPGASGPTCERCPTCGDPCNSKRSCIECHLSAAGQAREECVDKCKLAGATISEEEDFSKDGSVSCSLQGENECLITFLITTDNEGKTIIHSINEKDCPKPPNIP
The conditions noted are these: cited from earlier work.

A further assay addresses T2, αvβ3 (Homo sapiens, UniProt P05106+P06756).
T2 construct: purchased Immunological Sciences (Rome, Italy)
To be noted: Table 3a; Ki of 2 as determined in [21]; cited from earlier work.

Assay [2] deals with T3, αvβ8 (Homo sapiens, UniProt P06756+P26012). The assay can be described thus: Competitive integrin binding assay (isoDGR/STV-HRP probe), αvβ8-coated plates. The conditions noted are these: non-stapled control peptide with RGE. As to the method: (§1) Peptide binding was measured by a competitive binding assay using as integrin probe a complex made by a N-terminal acetylated isoDGR peptide biotinylated at the E-amino group of the lysine, acetyl-Ciso[…]-bio (SEQ ID No. 29), and a streptavidin-peroxidase conjugate (called isoDGR/STV-HRP)[43].
T3 sequence (P06756 31-992 limits assumed): as the sequence (P06756 31-992 limits assumed) above
T3 sequence (P26012 43-684 limits assumed): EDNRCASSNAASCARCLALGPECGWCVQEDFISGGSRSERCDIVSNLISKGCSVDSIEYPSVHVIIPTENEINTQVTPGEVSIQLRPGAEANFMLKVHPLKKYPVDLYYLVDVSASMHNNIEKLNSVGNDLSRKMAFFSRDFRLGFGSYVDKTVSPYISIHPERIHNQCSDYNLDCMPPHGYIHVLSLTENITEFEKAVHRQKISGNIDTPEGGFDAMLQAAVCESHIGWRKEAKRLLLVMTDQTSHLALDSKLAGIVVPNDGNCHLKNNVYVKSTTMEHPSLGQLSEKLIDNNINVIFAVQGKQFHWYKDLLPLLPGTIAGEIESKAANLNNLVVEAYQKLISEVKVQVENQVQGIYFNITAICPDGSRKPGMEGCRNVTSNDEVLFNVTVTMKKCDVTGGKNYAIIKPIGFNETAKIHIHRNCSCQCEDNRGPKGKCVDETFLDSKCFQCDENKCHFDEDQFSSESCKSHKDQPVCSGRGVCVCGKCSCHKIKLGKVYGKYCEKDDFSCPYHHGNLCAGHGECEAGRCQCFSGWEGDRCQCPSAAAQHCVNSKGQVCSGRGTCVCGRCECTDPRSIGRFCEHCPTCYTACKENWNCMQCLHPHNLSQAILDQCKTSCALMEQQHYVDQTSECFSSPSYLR
(§2) Each mixture was then added to integrin-coated wells and left to incubate for 2 h at room temperature. After washing with 25 mM Tris-HCl, pH 7.4, containing 150 mM sodium chloride, 1 mM magnesium chloride, 1 mM manganese chloride, each well was filled with a chromogenic solution (o-phenylenediamine dihydrochloride) and left to incubate for 30 min at room temperature. The chromogenic reaction was stopped by adding 1 N sulfuric acid. The absorbance at 490 nm was then measured using a microtiterplate reader. Ki values were calculated by non-linear regression analysis of competitive binding data using the “One site - Fit Ki” equation of the GraphPad Prism Software using the Kd values of the probe indicated above.

Assay [3] addresses T3, αvβ8. To be noted: Table 3a; Ki of 2 as determined in [21]; cited from earlier work.
The target of the next assay is T4, α5β1 (Homo sapiens, UniProt P05556+P08648).
T4 construct: purchased Immunological Sciences (Rome, Italy)
The conditions noted are these: Table 3a; Ki of 2 as determined in [21]; cited from earlier work.

The next assay addresses T5, αvβ5 (Homo sapiens, UniProt P06756+P18084).
T5 construct: purchased Immunological Sciences (Rome, Italy)
The conditions noted are these: Table 3a; Ki of 2 as determined in [21]; cited from earlier work.

Assay [4] concerns the target T1, αvβ6. The assay can be described thus: Competitive integrin binding assay (isoDGR/STV-HRP probe), αvβ6-coated plates. To be noted: non-stapled control peptide with RGE. As to the method:
as §1, §2

T2 sequence (P06756 31-889 limits assumed): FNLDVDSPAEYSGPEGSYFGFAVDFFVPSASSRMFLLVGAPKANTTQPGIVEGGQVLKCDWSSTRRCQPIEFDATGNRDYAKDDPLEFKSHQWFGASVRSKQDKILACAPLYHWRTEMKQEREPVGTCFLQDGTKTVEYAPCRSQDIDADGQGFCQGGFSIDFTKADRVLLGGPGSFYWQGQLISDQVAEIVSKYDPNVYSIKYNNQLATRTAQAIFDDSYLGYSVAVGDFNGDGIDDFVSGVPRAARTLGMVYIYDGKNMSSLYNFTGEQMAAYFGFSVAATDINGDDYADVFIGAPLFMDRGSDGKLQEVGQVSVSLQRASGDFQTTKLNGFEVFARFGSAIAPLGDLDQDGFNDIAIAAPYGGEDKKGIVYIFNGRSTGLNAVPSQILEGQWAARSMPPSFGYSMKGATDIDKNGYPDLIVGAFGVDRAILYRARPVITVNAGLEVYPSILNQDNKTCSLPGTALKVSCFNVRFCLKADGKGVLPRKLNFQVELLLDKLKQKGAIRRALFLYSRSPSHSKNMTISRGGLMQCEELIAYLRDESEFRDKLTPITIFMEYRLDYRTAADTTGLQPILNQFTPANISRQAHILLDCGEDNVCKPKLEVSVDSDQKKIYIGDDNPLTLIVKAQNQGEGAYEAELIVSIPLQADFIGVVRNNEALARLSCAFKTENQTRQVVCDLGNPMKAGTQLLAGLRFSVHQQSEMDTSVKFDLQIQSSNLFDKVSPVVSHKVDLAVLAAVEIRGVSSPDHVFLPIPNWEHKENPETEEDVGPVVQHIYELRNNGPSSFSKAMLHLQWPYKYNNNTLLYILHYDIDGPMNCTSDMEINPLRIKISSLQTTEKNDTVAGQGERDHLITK
T2 sequence (P06756 891-1048 partner limits assumed): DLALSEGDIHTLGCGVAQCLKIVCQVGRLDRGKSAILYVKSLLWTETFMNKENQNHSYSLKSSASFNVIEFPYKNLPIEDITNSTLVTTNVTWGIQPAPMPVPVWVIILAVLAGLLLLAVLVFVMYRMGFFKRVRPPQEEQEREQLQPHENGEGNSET
T2 sequence (P05106 27-788): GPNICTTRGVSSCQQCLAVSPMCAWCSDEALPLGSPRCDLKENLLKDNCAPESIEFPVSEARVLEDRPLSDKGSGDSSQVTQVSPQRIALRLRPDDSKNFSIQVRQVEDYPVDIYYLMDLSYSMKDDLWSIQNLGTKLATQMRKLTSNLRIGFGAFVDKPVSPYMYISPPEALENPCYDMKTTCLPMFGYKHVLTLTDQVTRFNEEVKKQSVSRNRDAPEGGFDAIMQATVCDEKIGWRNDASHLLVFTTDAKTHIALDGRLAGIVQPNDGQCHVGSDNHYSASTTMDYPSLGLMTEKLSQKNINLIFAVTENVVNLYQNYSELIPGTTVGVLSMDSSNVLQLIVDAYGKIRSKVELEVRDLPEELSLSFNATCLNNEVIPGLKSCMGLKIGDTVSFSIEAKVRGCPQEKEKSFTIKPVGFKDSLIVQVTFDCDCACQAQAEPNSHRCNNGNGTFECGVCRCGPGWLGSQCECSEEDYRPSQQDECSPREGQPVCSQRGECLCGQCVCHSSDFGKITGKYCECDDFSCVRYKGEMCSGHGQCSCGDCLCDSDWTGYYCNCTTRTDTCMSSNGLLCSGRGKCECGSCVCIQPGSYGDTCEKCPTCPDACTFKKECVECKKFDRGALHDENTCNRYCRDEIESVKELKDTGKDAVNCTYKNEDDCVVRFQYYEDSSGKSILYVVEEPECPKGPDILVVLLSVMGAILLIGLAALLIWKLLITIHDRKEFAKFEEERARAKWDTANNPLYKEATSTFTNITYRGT
T5 sequence (P06756 31-889 limits assumed): as the sequence (P06756 31-889 limits assumed) above
T5 sequence (P06756 891-1048 partner limits assumed): as the sequence (P06756 891-1048 partner limits assumed) above
T5 sequence (P18084 24-799): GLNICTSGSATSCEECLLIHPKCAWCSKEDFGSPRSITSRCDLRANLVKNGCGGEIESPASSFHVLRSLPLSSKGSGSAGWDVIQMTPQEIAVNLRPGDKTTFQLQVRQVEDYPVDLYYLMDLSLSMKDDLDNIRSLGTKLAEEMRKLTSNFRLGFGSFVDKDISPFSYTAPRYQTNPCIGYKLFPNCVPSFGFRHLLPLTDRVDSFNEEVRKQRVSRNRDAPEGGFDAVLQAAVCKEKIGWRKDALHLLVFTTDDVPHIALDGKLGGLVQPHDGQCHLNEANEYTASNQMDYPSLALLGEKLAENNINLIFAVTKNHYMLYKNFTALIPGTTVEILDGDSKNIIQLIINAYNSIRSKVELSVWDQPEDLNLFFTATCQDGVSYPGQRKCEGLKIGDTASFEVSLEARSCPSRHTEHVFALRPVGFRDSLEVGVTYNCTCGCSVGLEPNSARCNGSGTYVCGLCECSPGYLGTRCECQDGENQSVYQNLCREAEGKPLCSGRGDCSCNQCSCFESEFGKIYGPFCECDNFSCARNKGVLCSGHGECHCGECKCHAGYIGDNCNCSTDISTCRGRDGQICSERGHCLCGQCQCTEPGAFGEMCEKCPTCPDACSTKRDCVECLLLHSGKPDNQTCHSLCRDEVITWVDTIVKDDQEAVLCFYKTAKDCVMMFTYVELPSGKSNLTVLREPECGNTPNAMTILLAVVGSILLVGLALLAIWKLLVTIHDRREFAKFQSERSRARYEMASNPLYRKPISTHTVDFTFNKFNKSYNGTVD

Consider FETLRGEERILSILRHQNLLKELQD [peptide 2], for which the Ki is more than 50 µM on αvβ6 [1] (Table 3a, Ki of 2 as determined in [21], read-out: Ki αvβ6); more than 50 µM on αvβ6 [1] (peptide with RGE instead of RGD, read-out: Ki); more than 50 µM at αvβ3; more than 50 µM at αvβ8 [3]; more than 50 µM at α5β1; more than 50 µM at αvβ5. The “binding to αvβ8” value on αvβ8 [2] was “unable to bind these integrins”. Moreover, the “binding to αvβ6” value at αvβ6 [4] was “unable to bind these integrins”.
